Experimental data: article PMC11571207, “Stereorandomized Oncocins with Preserved Ribosome Binding and Antibacterial Activity” (Journal of Medicinal Chemistry, 2024)
Like-named read-outs stand apart in the source and are kept apart here. No end group written: not given here.

Assays:
[1] = test system: K. pneumoniae NCTC418; experiment: Time-killing kinetic assay, K. pneumoniae; format: cell-based, Klebsiella pneumoniae; details: 8× MIC, full MHB pH 7.4, 0-6 h, n = 6
Protocol: (§1) Time-Killing Kinetic Assay
(§2) Single colonies of E. coli W3110 and K. pneumoniae NCTC418 were picked and grown overnight with shaking (180 rpm) in LB (Sigma-Aldrich, Buchs, Switzerland) medium 5 mL overnight at 37 °C. The overnight bacterial cultures were diluted to OD600 = 0.002 (2 × 10^6 CFU/mL) in fresh MHB medium. Stock solutions of AMPs in sterilized milliQ water were prepared in 1 mg/mL and were diluted to two times more than required concentration in fresh MHB (Sigma- Aldrich, Buchs, Switzerland) medium at pH 7.4. 100 μL of prepared bacteria solution in MHB and 100 μL of samples in MHB were mixed in a 96-well microtiter plate (TPP, untreated, Corning Incorporated, Kennebunk, USA). Untreated bacteria at 1 × 10^6 CFU/mL were used as a growth control. 96-well microtiter plates were incubated in 37 °C with shaking (180 rpm). Surviving bacteria were quantified at 0, 0.5, 1, 2, 4 and 6 h by plating 10 -fold dilutions of the sample in sterilized normal saline on LB agar plates. LB agar plates were incubated at 37 °C for 10 h, and the number of individual colonies was counted at each time point. The assay was performed in triplicate in a biosafety level 2 lab. […]

[2] = test system: E. coli W3110; experiment: Time-killing kinetic assay, E. coli; format: cell-based, Escherichia coli; details: 8× MIC, full MHB pH 7.4, 0-6 h, n = 6
Protocol: as §1, §2

[3] = test system: P. aeruginosa PA14 4.13 (phoQ); details: for MIC P. aeruginosa PA14 4.13 (phoQ), 12.5% MHB / MIC P. aeruginosa PA14 4.13 (phoQ), full MHB: polymyxin B resistant strain, 16–20 h at 37 °C; for MIC P. aeruginosa PA14 4.13 (phoQ), 12.5% MHB: 12.5% MHB pH 7.4; for MIC P. aeruginosa PA14 4.13 (phoQ), full MHB: full MHB pH 7.4; for MIC P. aeruginosa PA14 4.13: supplement CSV
[4] = test system: E. coli ribosome, U2506 of the 23S rRNA; experiment: Ribosome footprinting (CMCT modification of U2506); format: binding; details: 1 μM peptide, 10.5 μM CMCT, purified E. coli ribosomes (5 pmol), 25 °C; primer extension, sequencing gel
Protocol: A 5 mL culture of E. coli MG1655 (WT-cells) was grown in LB overnight (220 rpm, 37 °C). One liter LB medium was inoculated, and bacteria were grown to OD = 0.6 (220 rpm. 37 °C); cells were centrifuged in centrifuge bottles, and the pellet was resuspended in ice-cold water and transferred in 50 mL falcon tubes. Falcon tubes were centrifuged, the supernatant was removed, the pellet was resuspended in 15 mL polysome buffer (TRIS/HCl pH 7.5 20 mM, NH4Cl 100 mM, MgCl2 10 mM, EDTA 0.5 mM, β-mercaptoethanol 60 mM), frozen dropwise in N2 (l), and stored at −80 °C. The cells were ground in CryoMil with the standard program (1 min precooling, 2 min grinding 5/s, 2 min cooling, 2 min grinding 5/s). The powder was transferred in 50 mL falcon tubes containing N2 (l) and stored at −80 °C. The lysates were thawed with a water bath (30 °C), put on ice, transferred to precooled Eppendorf tubes, and centrifuged (5000 g, 2 min, 4 °C). The clear lysate was transferred to new precooled tubes, centrifuged (14 000 g, 10 min, 4 °C), and the supernatant was transferred to new precooled tubes. 300 mL of clear lysate was loaded on a 10–50% sucrose gradient in CMCT buffer (K-borate buffer pH 8 80 mM, MgCl2 25 mM, NH4Cl 100 mM) and ultracentrifuged (3 h, 234 050 g, 4 °C). The fractions containing monosomes and polysomes were collected and ultracentrifuged overnight (16 h, 260 800 g, 4 °C). The supernatant was discarded, and the pellet was washed with ice-cold CMCT buffer. The ribosomes were resuspended in 100 μL CMCT buffer with a mini magnetic stirring bar and stored on ice. The concentration of ribosomes was measured in 1/200 dilution in water.
Ribosomes (5 pmol) were mixed with 8 μL of CMCT buffer, the compound of interest 1 μM, and water to a final volume of 20 μL in a precooled tube and incubated at 25 °C for 10 min. 20 μL of CMCT (10.5 μM) in water was added and incubated at 25 °C for 30 min. The reaction was stopped with 160 μL of EDTA (30 μM), and the samples were stored on ice.
160 μL portion of RNA resuspension buffer and 40 μL of 10% SDS were added, and the samples were vigorously resuspended. 400 μL of prewarmed acid phenol was added, and the samples were incubated on a thermomixer (5 min, 1200 rpm, 65 °C). The samples were put on ice for 5 min and centrifuged (5 min, 14 000 g, RT). The watery phase was transferred to a new precooled tube, 400 μL of phenol–chloroform–isoamyl alcohol (4 °C) was added, and the samples were mixed (5 min, 1200 rpm, RT). The samples were centrifuged again (5 min, 14 000g, RT), and the watery phase was transferred to another precooled tube. 34 μL of 3 M NaOAc pH 5.5, 0.8 μL of Glycoblue and 400 μL of isopropanol were added, and the samples were incubated for 3 h at −80 °C. The samples were then centrifuged (40 min, 21 000g, 4 °C), and the pellet was washed with ice-cold 70% EtOH. The residual liquid was removed, and the samples were dried (5 min, 37 °C). The samples were resuspended in 20 μL of water, the concentration was measured, and the samples were −80 °C.
Primers designed to probe the positions 2506 of the 23S rRNA (5-[sequence]-3′) were labeled with radioactive phosphate (γ^32 P-ATP). […] To prepare primers for one reaction, 1 μL of primer (0.3 μM), 0.4 μL of 5× PNK-buffer, 0.25 μL of water, 0.2 μL of γ^32 P-ATP, and 0.15 μL of T4 PNK were mixed and incubated at 37 °C.

[5] = test system: E. coli BW25113 WT; details: Table S1, 16-20 h at 37 °C; for MIC E. coli BW25113 WT, 12.5% MH: 12.5% Müller-Hinton medium pH 7.4; for MIC E. coli BW25113 WT, Full MH: full Müller-Hinton medium pH 7.4
Protocol: (§3) Minimum inhibitory concentration assay
(§4) Antimicrobial activity was assayed against P. aeruginosa PAO1, K. pneumoniae NCTC418, E. coli W3110, A. baumannii ATCC 19606, methicillin-resistant S. aureus COL (MRSA), and for selected peptides on P. aeruginosa PA14 and the polymyxin-B-resistant derivative PA14 2P4, as well as the clinical isolates ZEM-1A and ZEM9A, K. pneumoniae OXA-48, S. aureus Newman, Enterobacter cloacae and Burkholderia cenocepacia. The minimal inhibitory concentration (MIC) was determined by using broth microdilution method. A colo ny of bacteria was picked and grown in Luria-Bertani (LB) medium overnight at 37°C. For E. coli BW25113 sbmA::kan the medium was supplemented with 25 mg/L of kanamycin. The next day, the culture was then regrown in LB medium to log phase (OD600 = 0.6 to 0.8), which lasted approximately 4 h, and diluted to an OD600 of 0.022 in the desired medium. Stock solutions of 1 mg/mL of the samples were prepared in sterilized milliQ water and diluted to the beginning concentration of 64 μg/mL in 300 μL Mueller Hinton (MH)-medium. The diluted samples were added to first well of 96-well microtiter plate (TPP, untreated, Faust Laborbedarf, AG, Schaffhausen) and diluted serially by ½. Finally, 4 μL of the bacterial suspension was inoculated into the sample solutions (150 μL/well) with a final inoculation of about 5∙10^5 CFU/mL. The plates were then incubated at 37°C for 15-18h. For each assay, sterility (broth only) and growth control (broth with bacterial inoculum, without antibiotics) were checked with two columns in the plate. The next day, 15 μL of 3-(4,5-dimethylthiazol-2-yl)-2,5-diphenyltetrazolium bromide (MTT) was added to each well of the plate, such a way that MIC was defined as the lowest concentration of the peptide that inhibited visible growth of the tested […]
(§5) Table S1. Activity of stereorandomized and diastereomeric oncocins against E. coli BW25113 WT and BW25113 sbmA::kan mutant in full and 12.5% MH, at pH 7.4. […]
(§6) a) Minimum inhibitory concentration (MIC, μg/mL) was determined on E. coli BW25113 WT and […]

[6] = test system: E. coli BW25113 sbmA::kan; details: Table S1, sbmA::kan mutant, 16-20 h at 37 °C; for MIC E. coli BW25113 SbmA-, 12.5% MH: 12.5% Müller-Hinton medium pH 7.4; for MIC E. coli BW25113 SbmA-, Full MH: full Müller-Hinton medium pH 7.4
Protocol: as §3, §4, §5, §6

| Compound | Killing profile against K. pneumoniae [1] | Killing profile against E. coli [2] | MIC P. aeruginosa PA14 4.13 (phoQ), 12.5% MHB [3] | MIC P. aeruginosa PA14 4.13 (phoQ), full MHB [3] | MIC P. aeruginosa PA14 4.13 ([3]; 12.5% MH pH 7.4) | MIC P. aeruginosa PA14 4.13 ([3]; full MH pH 7.4) | Protection of U2506 of 23S rRNA from CMCT modification (band at C2507) [4] | MIC E. coli BW25113 WT, 12.5% MH [5] | MIC E. coli BW25113 WT, Full MH [5] | MIC E. coli BW25113 SbmA-, 12.5% MH [6] | MIC E. coli BW25113 SbmA-, Full MH [6] |
| --- | --- | --- | --- | --- | --- | --- | --- | --- | --- | --- | --- |
| CC[C@H]1OC(=O)[C@H](C)[C@@H](O[C@H]2C[C@@](C)(OC)[C@@H](O)[C@H](C)O2)[C@H](C)[C@@H](O[C@@H]2O[C@H](C)C[C@H](N(C)C)[C@H]2O)[C@](C)(O)C[C@@H](C)CN(C)[C@H](C)[C@@H](O)[C@]1(C)O [AZM, azithromycin, reference compound] | acted bacteriostatically | acted bacteriostatically |  |  |  |  |  |  |  |  |  |
| VDKPPYLPRPRPPRRIYNR [sr5Cterm-Onc] (VDKPPYLPRPRPPRRIYNR-NH2; also: residues 15-19 stereorandomized (1:1 L/D mixture)) [oncocin with the five C-terminal residues stereorandomized] | comparable kinetics to L-Onc | comparable kinetics to L-Onc | 8 µg/mL | 64 µg/mL | 8 µg/mL | 64 µg/mL | protected from CMCT modification |  |  |  |  |
| VDKPPYLPRPRPPRRIYNR-NH2 [L-Onc, reference compound] |  |  | 16 µg/mL | > 64 µg/mL | 16 µg/mL | >64 µg/mL |  | 4 µg/mL | 16 to 32 µg/mL | 8 µg/mL |  |
| polymyxin B [PMB, reference compound] |  |  | 2/2 μg/mL | 2/2 μg/mL | 2 µg/mL | 2 µg/mL |  | 1 to 2 µg/mL | 2 µg/mL | 1 µg/mL | 1 µg/mL |
| VDKPPYLPRPRPPRRIYNR [sr-Onc] (VDKPPYLPRPRPPRRIYNR-NH2; also: all 19 residues stereorandomized (1:1 L/D mixture)) [fully stereorandomized oncocin] |  |  | 16 µg/mL | > 64 µg/mL | 16 µg/mL | >64 µg/mL | did not protect U2506 from CMCT modification | 8 µg/mL | > 64 µg/mL | 8 to 16 µg/mL | > 64 µg/mL |
